Reference: ChEMBL document CHEMBL1128205, “Design and synthesis of conformationally constrained analogues of 4-(3-butoxy-4-methoxybenzyl)imidazolidin-2-one (Ro 20-1724) as potent inhibitors of cAMP-specific phosphodiesterase” (J Med Chem, 1995)

Experiments:
[1] = target: 3',5'-cyclic-AMP phosphodiesterase 4B (Homo sapiens, UniProt Q07343); test: Inhibition of human Phosphodiesterase 4B
Homo sapiens = species on record: Homo sapiens; test: Inhibition of LPS-induced TNF-alpha secretion from purified human peripheral blood monocytes; type: functional

Chain of 3',5'-cyclic-AMP phosphodiesterase 4B (Q07343 whole entry): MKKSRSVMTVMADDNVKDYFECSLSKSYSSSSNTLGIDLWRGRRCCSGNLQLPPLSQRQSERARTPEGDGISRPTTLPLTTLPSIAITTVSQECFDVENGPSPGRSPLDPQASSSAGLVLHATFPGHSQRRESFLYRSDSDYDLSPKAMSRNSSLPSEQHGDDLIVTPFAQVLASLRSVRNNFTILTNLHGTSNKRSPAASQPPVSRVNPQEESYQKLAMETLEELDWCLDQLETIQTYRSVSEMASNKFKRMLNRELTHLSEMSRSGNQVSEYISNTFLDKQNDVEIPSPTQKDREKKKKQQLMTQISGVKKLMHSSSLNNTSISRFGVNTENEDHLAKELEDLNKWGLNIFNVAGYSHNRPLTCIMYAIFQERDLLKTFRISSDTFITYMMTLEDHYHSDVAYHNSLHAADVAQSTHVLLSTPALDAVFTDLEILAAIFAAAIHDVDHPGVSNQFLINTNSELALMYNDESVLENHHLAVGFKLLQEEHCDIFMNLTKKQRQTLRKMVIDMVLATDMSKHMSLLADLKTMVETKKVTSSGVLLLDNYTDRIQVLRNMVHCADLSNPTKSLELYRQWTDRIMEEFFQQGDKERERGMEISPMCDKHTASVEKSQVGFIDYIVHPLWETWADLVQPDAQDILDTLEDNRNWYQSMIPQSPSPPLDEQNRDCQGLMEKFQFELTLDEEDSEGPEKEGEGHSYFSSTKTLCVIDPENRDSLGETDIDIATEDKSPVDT

## COc1ccc([C@H]2CCN3C(=O)OC[C@@H]23)cc1OC1CCCC1
[1]
  Ki: 282 nM

## COc1ccc([C@H]2CCN3C(=O)CC[C@H]23)cc1OC1CCCC1
[1]
  Ki: 63 nM

## COc1ccc([C@H]2CCN3C(=O)NC[C@@H]23)cc1OC1CCCC1
[1]
  Ki: 583 nM

## COc1ccc([C@H]2CCN3C(=O)NC[C@H]23)cc1OC1CCCC1
[1]
  Ki: 27 nM
Homo sapiens
  IC50: 290 nM

## COc1ccc([C@H]2CCN3C(=O)OC[C@H]23)cc1OC1CCCC1
[1]
  Ki: 70 nM

## COc1ccc([C@H]2CCN3C(=O)CC[C@@H]23)cc1OC1CCCC1
[1]
  Ki: 338 nM

## COc1ccc(CC2CNC(=O)N2)cc1OC1CCCC1 (stereo not given)
[1]
  Ki: 447 nM

## CCCCOc1cc(CC2CNC(=O)N2)ccc1OC (stereo not given) [RO-201724]
Homo sapiens
  IC50: 1800 nM

## COc1ccc(C2CNC(=O)C2)cc1OC1CCCC1 (stereo not given) [ROLIPRAM]
Homo sapiens
  IC50: 320 nM
